These results are taken from US8614064B2, “Methods of diagnosing atherosclerosis by measuring ApoCI” (The Johns Hopkins University, priority 2003, dated 2013).

Data set [1] deals with human aortic smooth muscles cells (ASMC). Nature of the data set: Fluorescence microscope quantitative assay of apoptotic death (DAPI staining). As to conditions: for apoptotic cells by white staining of the nucleus with DAPI (FIG. 1A): 2.5 μg/mL medium; for percent of apoptotic cells (DAPI, FIG. 1B): ApoCI and ApoCIII 2.5 μg/mL medium, ApoCI-enriched HDL 1 μg apoA-I/mL, ApoCI-poor HDL 5 μg apoA-I/mL, control 2.24%. Format: cell-based. The protocol:
FIGS. 1A-1C depict the effect of apolipoproteins on apoptosis in human aortic smooth muscles cells (ASMC). ASMC were grown on sterilized glass cover slips and incubated for 24 hours with media alone (control), ApoCIII (negative control, 2.5 μg/mL medium), ApoCI (2.5 μg/mL medium), ApoCI-enriched HDL (1 μg apoA-I/mL medium), or ApoCI-poor HDL (5 μg apoA-I/mL medium) for 24 hours. Cells were then fixed with ethanol-acetic acid (3:1 volume/volume) and washed 3 times with phosphate-buffered saline. The cells were then stained with DAPI reagent, mounted on a glass cover slide, and subjected to fluorescence microscopy. FIG. 1A: The nucleus of normal cells stains blue and the nucleus of apoptotic cells stains is fragmented white. FIG. 1B: 300 to 500 cells in each sample were counted and the percent of apoptotic cells was plotted. Values are mean±SD; **P<0.01, ***P<0.001. FIG. 1C: DNA ladder assay. Confluent cultures of ASMC were incubated with control medium alone, ApoCI (2.5 μg/mL medium), ApoCIII (negative control, 2.5 μg/mL medium), and TNF-α (positive control, 20 ng/mL medium). Genomic DNA was extracted and 10 μg DNA was subjected to agarose gel electrophoresis. The gels were calibrated with commercially available DNA standards. After electrophoresis, the gels were stained with ethidium bromide and then photographed.
FIGS. 2A-2B depict the effect of ApoCI, the N-SMase inhibitor, GW4869, and C-2 ceramide on apoptosis in cultured human ASMC. FIG. 2A: ASMC (1×10^3) were seeded on sterilized glass cover slips and grown in tissue culture medium with 10% fetal calf serum for 48 hours. […] Thirty minutes later, vehicle DMSO, ApoCI (2.5 μg/mL), or C2-ceramide (10 μmol/L) were added to dishes, and the incubation continued for 24 hours. The cells were then fixed with ethanol-acetic acid (3:1 v/v), stained with DAPI reagent, assessed by fluorescent microscopy, and photographed. Top to bottom: control cells; cells incubated with ApoCI± the N-SMase inhibitor, GW4869; and cells incubated with ApoCI GW4869, and C2-ceramide. FIG. 2B: The DAPI-stained ASMC from the four experimental conditions described was analyzed for quantitative apoptosis. Mean (SD) from 4 experiments. *P<0.05.
Human AoSMC that were negative for mycoplasma, hepatitis B and C and HIV-1 were purchased from Clonetics (San Diego, Calif.) and cultured in Dulbecco's minimal essential medium (Invitrogen, Carlsbad, Calif.) with 10% fetal bovine serum (Hyclone, Salt Lake City, Utah), 100-units/ml penicillin, 100-μg/ml streptomycin to confluence. The cells were incubated in serum-free medium for 30 min prior to initiating the experiments. Cells were then washed and harvested in PBS, and centrifuged at 1500 rpm for 5 min at 4° C. Protease inhibitors were then added and the pellets stored frozen at −30° C. until use.
1×10^3 cells were grown on sterilized glass cover slips in 6-well trays and treated with ApoCI (2.5 μg/ml medium), ApoCIII (2.5 μg/ml medium), tumor necrosis factor (TNF)-α (30 ng/ml), ApoCI-enriched HDL (1 μg apoA-I/ml medium) and ApoCI-poor HDL (5 μg apoA-I/ml medium). After 24 h incubation, the medium was removed, cells fixed with ethanol:acetic acid […] and stored at 4° C. Next, the fixing solution was removed and cells stored frozen at −30° C. Cover slips were mounted on the microscope slides and stained with DAPI reagent (4,6-diamino-2-phenylindol, dihydrochloride). The stained nuclei were visualized by fluorescence microscopy (Zeiss Axiovert 25). Apoptotic cells were determined after counting—500 cells in a double blind fashion.

The test system of the next data set is N-SMase. Nature of the data set: Neutral sphingomyelinase assay in treated ASMC ([14C]sphingomyelin substrate). Format: cell-based, human. On the procedure: FIGS. 3A-3C depict the effects of ApoCI, ApoCIII, TNF-α, ApoCI-enriched HDL, and ApoCI-poor HDL on the activity of N-SMase in ASMC. Confluent cultures of ASMC were preincubated for 30 minutes with serum-free (control) medium, then ApoCI (2.5 μg/mL medium), ApoCIII (2.5 μg/mL medium), TNF-α (20 ng/mL medium) (FIG. 3A, top), or ApoCI-enriched HDL (1 μg apoAI/mL medium), or ApoCI-poor HDL (5 μg apoA-I/mL medium) (FIG. 3B, middle) were added individually to cells. The cells were then incubated and harvested at the indicated time points, and the activity was of N-SMase determined using [^14C]sphingomyelin as substrate. The N-SMase activity in control cells was 22 nmol/h per milligram cell protein, and this value was considered as 100% activity. In a separate experiment (FIG. 3C bottom), cells (0.5×10^5) were seeded in P60 Petri dishes and grown in DMEM supplemented with 10% fetal bovine serum for 5 days. After preincubation of cells for 30 minutes in serum-free medium, increasing amounts of ApoCI were added. After incubation for 10 minutes, cells were harvested, and N-SMase activity was measured.
After stimulation with ApoCI ApoCI-enriched HDL and ApoCI-poor HDL, the cells were washed with 5 ml of PBS and harvested. The pellets were stored frozen at −70° C. and resuspended in 0.5 ml of buffer (100 mM Tris-HCl pH 7.4, 0.1% Triton X-100, 1 mM EDTA and protease inhibitors). The cell suspension was sonicated 3 times (3-s bursts) using a probe sonicator and centrifuged at 500×g at 4° C. for 5 min. The supernatant was used as the enzyme source. 100 μg of protein was assayed for neutral sphingomyelinase activity in a buffer consisting of 50 mM Tris-HCl, pH 7.4, 0.1% Triton X-100, 0.1 mg of bovine serum albumin, 5 mM MgCl2 and […] of [^14C]sphingomyelin (specific activity 50 mCi/mmol, from American Radiolabled Chemicals (St. Louis, Mo.). The samples were incubated at 37° C. for 2 h and terminated with the addition of 1 ml of 10% trichloroacetic acid. The precipitate was pelleted (1000×g at 4° C. for 30 min) and 1 ml of the supernatant was extracted with 1 ml of anhydrous diethyl ether. About 0.5 ml of the aqueous phase was removed for liquid scintillation counting (Ghosh, N., and Chatterjee, S. (1998) J. Biol. Chem. 264, 12554-12561).

Turning to “ApoCIII: purified human ApoCIII purchased from Academy Bio-Medical Company, used as negative control”, in data set [1] (24 h), the “apoptotic cells by white staining of the nucleus with DAPI (FIG. 1A)” value is given as “only a few apoptotic cells” and the “percent of apoptotic cells (DAPI, FIG. 1B)” value stood at 4.78%. Also, in the data set with N-SMase (ApoCIII 2.5 μg/mL, ApoCI-poor HDL 5 μg apoA-I/mL, time course to 60 min), the “pattern of N-SMase stimulation with time” value is given as “Such a pattern was not seen”.

With “Apolipoprotein C-I (TPDVSSALDKLKEFGNTLEDKARELISRIKQSELSAKMREWFSETFQKVKEKLKIDS; UniProt P02654 27-83, looked up) [ApoCI, 6.6-kDa single-chain plasma protein of 57 amino acids; purified human ApoCI purchased from Academy Bio-Medical Company]”, in data set [1] (24 h), the “apoptotic cells by white staining of the nucleus with DAPI (FIG. 1A)” value is on record as “many apoptotic cells” and the “percent of apoptotic cells (DAPI, FIG. 1B)” value turned out to be 26.19%. Besides, the “ApoCI-induced apoptosis, percent apoptotic cells (FIG. 2B)” value in data set [1] (ApoCI 2.5 μg/mL, 24 h, control ~2%) is on record as roughly 12%. Besides, in the data set on N-SMase (5 min, ApoCI 2.5 μg/mL, TNF-α 20 ng/mL, ApoCI-enriched HDL 1 μg apoA-I/mL, control 22 nmol/h per mg protein = 100%), the “increase in the activity of N-SMase at 5 minutes” value is on record as roughly 2 fold. Also, in the data set on N-SMase (ApoCI 2.5 μg/mL medium, 10 min incubation), the “maximum increase in N-SMase activity, concentration dependence (FIG. 3C)” value was determined as 1.5 fold.

As to `O=C(/C=C/c1ccc(/C=C/C(=O)Nc2ccc(C3=NCCN3)cc2)cc1)Nc1ccc(C2=NCCN2)cc1` [GW4869], in data set [1] (GW4869 10 μmol/L), the “effect of GW4869 on ApoCI-induced apoptosis, lower dose” value is listed as “also observed”. The “effect of GW4869 on ApoCI-induced apoptosis” value in data set [1] (GW4869 20 μmol/L, 30 min before ApoCI 2.5 μg/mL, 24 h) was “completely abrogated”.
